Assay results from PMC8399196, “Synthesis, Characterization, and Anticancer Activity of Benzothiazole Aniline Derivatives and Their Platinum (II) Complexes as New Chemotherapy Agents” (Pharmaceuticals, 2021).
“Also recorded” adds a separate entry of the source.

How the values were obtained:
PC-3 cells = assay: CCK-8 cell viability assay, PC-3; format: cell-based; conditions: PC-3 human prostate cancer cells, CCK-8, 24 h, mean ± SEM, n = 3
Protocol: (§1) Human colorectal adenocarcinoma cells (HT-29, ATCC® HTB-38), adenocarcinomic human alveolar basal epithelial cells (A549, ATCC® CCL-185), and prostate cancer (PC-3, ATCC® CRL-1435) were cultured in the growth medium, containing Roswell Park Memorial Institute Medium (RPMI1640) WelGENE, Daegu, Korea supplemented with 10% (v/v) fetal bovine serum (FBS, Gibco, Grand Island, NY, USA) and 1% antibiotics-antimycotics (Gibco). Human breast adenocarcinoma cells (MCF-7, ATCC® HTB-22™), hepatocellular carcinoma (HepG2, ATCC® HB-8065™), Rattus brain glioma (C6, ATCC ® CRL-2303™), and human renal carcinoma (Caki-2, ATCC® HTB-47™) cells were cultured in Dulbecco’s modified Eagle’s medium (DMEM, WelGENE, Daegu, Korea) supplemented with 10% (v/v) FBS (Gibco) and 1% antibiotics-antimycotics (Gibco). Mouse brain neural (NE-4C, ATCC® CRL-2925™) and human cervix adenocarcinoma cells (HeLa, ATCC® CCL-2™) were cultured in Eagle’s minimum essential medium (EMEM, ATCC® 30-2003™) supplemented with 10% FBS (Gibco) and 1% antibiotics-antimycotics (Gibco). Mouse liver normal cells (AML12, ATCC® CRL-2254™) were cultured in DMEM/F-12 (WelGENE) supplemented with 10% FBS (Gibco), 1 × ITS (10 μg/mL insulin, 5.5 μg/mL transferrin, 6.7 ng/mL selenium, Gibco), […] 1% antibiotics-antimycotics (Gibco). Human breast epithelial cells (MCF 10A, ATCC® CRL-10317™) were cultured in DMEM/F-12 (WelGENE) supplemented with 5% horse serum (Gibco), 20 ng/mL epidermal growth factor (EGF, Peprotech Inc., Rocky Hill, NJ, USA), […] (Sigma-Aldrich, St. Louis, MO, USA), 100 ng/mL colera toxin (Sigma-Aldrich), 10 μg/mL insulin (Sigma-Aldrich) and 1% antibiotics- (Gibco). Human colon normal epithelial cells (FHC, ATCC® CRL-18317™) were cultured in DMEM/F-12 (WelGENE) supplemented with 10% FBS (Gibco), 10 ng/mL cholera toxin (Sigma-Aldrich), 20 ng/mL EGF (Peprotech Inc.), 100 μg/mL hydrocortisone (Sigma-Aldrich), 1 × ITS (10 μg/mL insulin, 5.5 μg/mL transferrin, 6.7 ng/mL selenium, Gibco) and 1% antibiotics-antimycotics (with 100 units penicillin, 100 μg streptomycin and 250 ng amphotericin B per mL, Gibco). Cells were incubated in a humidified 5% CO2 atmosphere at 37 °C.
(§2) To evaluate cytotoxicity, cells were seeded in a 96-well plate (FHC, 0.5 × 10^4 cells/well; Caki-2 and MCF 10A, 1 × 10^4 cells/well; AML12, 1.2 × 10^4 cells/well; HeLa, HEK-293, A549, and PC-3, 1.5 × 10^4 cells/well; HT-29, MCF-7, C6, HepG2, and NE-4C, 2 × 10^4 cells/well). […] In addition, cell counting kit-8 (CCK-8, Dojindo Laboratories, Kumamoto, Japan) solution was added to each well, and the plate was incubated for 2 h. The absorbance was then measured at 450 nm using a microplate reader (SpectraMax i3, Molecular Devices, San Jose, CA, USA). The IC50 and logIC50 values were calculated in GraphPad Prism (GraphPad Prism Software Inc. Version 5.02, San Diego, CA, USA). All experiments were performed, independently, three times. The graph of logIC50 values represents the average value.

FHC cells = assay: CCK-8 cell viability assay, FHC normal cells; format: cell-based; conditions: FHC normal human colon epithelial cells, CCK-8, 24 h, mean ± SEM, n = 3
Protocol: as §1, §2

C6 cells = assay: CCK-8 cell viability assay, C6; format: cell-based, Rattus; conditions: C6 brain glioma cells, CCK-8, 24 h, mean ± SEM, n = 3
Protocol: as §1, §2

HT-29 cells = assay: CCK-8 cell viability assay, HT-29; format: cell-based; conditions: HT-29 human colon cancer cells, CCK-8, 24 h, mean ± SEM, n = 3
Protocol: as §1, §2

HeLa cells = assay: CCK-8 cell viability assay, HeLa; format: cell-based; conditions: HeLa human cervical cancer cells, CCK-8, 24 h, mean ± SEM, n = 3
Protocol: as §1, §2

A549 cells = assay: CCK-8 cell viability assay, A549; format: cell-based; conditions: A549 human lung cancer cells, CCK-8, 24 h, mean ± SEM, n = 3
Protocol: as §1, §2

[1] = Stability in buffered aqueous solution by UV-Vis spectroscopy; format: physicochemical; conditions: for Stability, time-dependent UV-Vis spectrum: 1 mM in PBS (L1Pt: 2% DMSO in PBS), physiological pH 7.4, t = 0, 7, 24 h, 200-450 nm; for Stability, time-dependent UV-Vis spectrum at other pH-values: 1 mM in PBS, acidic (pH 2), weakly acidic (pH 5), alkaline (pH 12), t = 0, 7, 24 h
Protocol: An indispensable feature of any promising anticancer agent is its thermodynamic stability in aqueous media. All prospective agents should be able to reach their target under the conditions encountered in living organisms. Therefore, the stability of the compounds was measured at 1 mM in phosphate-buffered saline (PBS) solution using UV–Vis spectroscopy. […] The stability of the metal complexes is often dependent on the pH value and the pH 4.5–5.0 is crucial since endosomal uptake of the complexes by lysosomes can occur.

MCF-7 cells = assay: CCK-8 cell viability assay, MCF-7; format: cell-based; conditions: MCF-7 human breast cancer cells, CCK-8, 24 h, mean ± SEM, n = 3
Protocol: as §1, §2

[2] = Solubility in water / aqueous media; format: physicochemical
HepG2 cells = assay: CCK-8 cell viability assay, HepG2; format: cell-based; conditions: HepG2 human hepatic carcinoma cells, CCK-8, 24 h, mean ± SEM, n = 3
Protocol: as §1, §2

AML12 cells = assay: CCK-8 cell viability assay, AML12 normal cells; format: cell-based; conditions: AML12 normal mouse liver hepatocyte cells, CCK-8, 24 h, mean ± SEM, n = 3
Protocol: as §1, §2

MCF-10A cells = assay: CCK-8 cell viability assay, MCF-10A normal cells; format: cell-based; conditions: MCF-10A normal human breast epithelial cells, CCK-8, 24 h, mean ± SEM, n = 3
Protocol: as §1, §2

HEK-293 cells = assay: CCK-8 cell viability assay, HEK-293 normal cells; format: cell-based; conditions: HEK-293 human embryonic kidney cells, CCK-8, 24 h, mean ± SEM, n = 3
Protocol: as §2

NE-4C cells = assay: CCK-8 cell viability assay, NE-4C normal cells; format: cell-based; conditions: NE-4C mouse brain neural stem cells, CCK-8, 24 h, mean ± SEM, n = 3
Protocol: as §1, §2

Caki-2 cells = assay: CCK-8 cell viability assay, Caki-2; format: cell-based; conditions: Caki-2 human renal cancer cells, CCK-8, 24 h, mean ± SEM, n = 3
Protocol: as §1, §2

Structure (SMILES)	IC50 (PC-3 cells)	IC50 (FHC cells)	IC50 (C6 cells)	IC50 (HT-29 cells)	IC50 (HeLa cells)	IC50 (A549 cells)	IC50 (MCF-7 cells)	IC50 (HepG2 cells)	IC50 (AML12 cells)	IC50 (MCF-10A cells)	IC50 (HEK-293 cells)	IC50 (NE-4C cells)	IC50 (Caki-2 cells)	IC50 (C6 cells; Rattus norvegicus)	IC50 (MCF-7 cells; MCF7)	IC50 (HEK-293 cells; HEK293)	IC50 (NE-4C cells; Neural stem cell)	further results
O=C(Nc1ccc(-c2nc3ccccc3s2)cc1)C1C[NH2+][Pt-2]([Cl])([Cl])[NH2+]1 (stereo not drawn) [Compound L1Pt]	55.7 ± 7.5 µM	64.3 ± 2.4 µM	93.3 ± 22.7 µM	42.6 ± 5.6 µM	64.7 ± 0.3 µM	167 ± 11.2 µM	59 ± 11 µM	7.5 ± 0.1 µM	139 ± 0.8 µM	46.9 ± 5.1 µM	54.9 ± 2.8 µM	25.7 ± 1.7 µM	106 ± 8.5 µM					Stability, time-dependent UV-Vis spectrum [1]: did not display any significant changes throughout 24 h; also recorded: remains stable over 24 h; Stability, time-dependent UV-Vis spectrum at other pH-values [1]: no obvious changes in the absorptions peak; Solubility in water / aqueous media [2]: poor solubility in aqueous media
O=C(Nc1ccc(-c2nc3ccccc3s2)cc1)C1CNC(c2ccccn2)=N1 (stereo not drawn) [Compound L3, 2-Pyridin-2-yl-4,5-dihydro-1H-imidazole-4-carboxylic acid (4-benzothiazol-2-yl-phenyl)amide]	130 ± 34.7 µM	> 500 µM		70.5 ± 0.2 µM	98.9 ± 3.5 µM	> 500 µM		> 500 µM	> 500 µM	> 500 µM			> 500 µM	142 ± 15.3 µM	190 ± 16.5 µM	> 500 µM	22.4 ± 2.4 µM	
N.N.[Cl][Pt][Cl] [Cisplatin, cis-diamminedichloroplatinum-(II), reference compound]	> 500 µM	> 500 µM	227 ± 34.3 µM	39.1 ± 0.6 µM	26.2 ± 5.6 µM	> 500 µM	204 ± 27.3 µM	54.2 ± 31.8 µM	32.1 ± 4.4 µM	95.9 ± 6.7 µM	65.5 ± 4.1 µM	9 ± 0.3 µM	> 500 µM					IC50 (AML12 cells; listed as cisplatin): 32 µM
Nc1ccc(-c2nc3ccccc3s2)cc1 [BTA, 2-(4-aminophenyl)-benzothiazole, reference compound]	182 ± 7.8 µM	> 500 µM		275 ± 5 µM	76.4 ± 23.4 µM	> 500 µM		52 ± 5.7 µM	> 500 µM	401 ± 136 µM			463 ± 44.1 µM	425 ± 47.7 µM	104 ± 28.6 µM	> 500 µM	60.9 ± 2.9 µM	
O=C(Nc1ccc(-c2nc3ccccc3s2)cc1)C(C/N=C/c1ccccc1O)/N=C/c1ccccc1O (stereo not drawn) [Compound L2, N-(4-Benzothiazol-2-yl-phenyl)-2,3-bis-[(2-hydroxy-benzylidene)amino] propionamide]	116 ± 5 µM	189 ± 10.3 µM		135 ± 4.4 µM	47 ± 6 µM	182.4 ± 0.8 µM		14.2 ± 7 µM	> 500 µM	79.3 ± 25.4 µM			159 ± 4.3 µM	143 ± 32.7 µM	98.1 ± 7.9 µM	139 ± 20.1 µM	28.2 ± 0.1 µM	
NCC(N)C(=O)Nc1ccc(-c2nc3ccccc3s2)cc1 (stereo not drawn) [Compound L1, 2,3-Diamino-N-(4-benzothiazol-2-yl-phenyl)-propionamide]	94.9 ± 0.8 µM	72.7 ± 2 µM		29.9 ± 0.3 µM	41.9 ± 3.4 µM	100 ± 8.4 µM		5.9 ± 0.5 µM	138 ± 24.1 µM	65.1 ± 1.9 µM			75.6 ± 3.4 µM	77.8 ± 9.7 µM	65.9 ± 12.3 µM	68.1 ± 2.8 µM	36.8 ± 3.7 µM	Stability, time-dependent UV-Vis spectrum [1]: did not display any significant changes throughout 24 h; Stability, time-dependent UV-Vis spectrum at other pH-values [1]: no obvious changes in the absorptions peak; Solubility in water / aqueous media [2]: soluble in water
O=C(Nc1ccc(-c2nc3ccccc3s2)cc1)C1CNC2=[N+]1[Pt-2]([Cl])([Cl])[n+]1ccccc12 (stereo not drawn) [Compound L3Pt]	> 500 µM	> 500 µM	> 500 µM	> 500 µM	> 500 µM	> 500 µM	> 500 µM	> 500 µM	> 500 µM	> 500 µM	206 ± 7.4 µM	32.4 ± 6 µM	> 500 µM					
O=C(Nc1ccc(-c2nc3ccccc3s2)cc1)C1C[N+]2=Cc3ccccc3[O][Pt-2]23[O]c2ccccc2C=[N+]13 (stereo not drawn) [Compound L2Pt]	> 500 µM	> 500 µM	> 500 µM	173 ± 3.2 µM	221 ± 15.8 µM	> 500 µM	> 500 µM	31.6 ± 3.6 µM	> 500 µM	> 500 µM	212 ± 14.9 µM	47 ± 4.1 µM	> 500 µM					
